Experimental data: BindingDB's records for doi:10.1016/j.bmc.2014.03.018 (Deakin University, 2014)
pIC50: −log10 of the molar value.

Assay: Antagonist activity at androgen receptor in human LNCAP cells assessed as inhibition of androgen-stimulated cell growth measured every 3 days

Compound | pIC50
CC(C)(O)c1cn(-c2ccc(Cl)c(C(F)(F)F)c2)nn1 | 4.31
CC(C)(O)c1cn(-c2ccc([N+](=O)[O-])c(C(F)(F)F)c2)nn1 | 4.35
